In patent publication US10072012B2, “Process for crystalline pemetrexed dipotassium salt” (SHILPA MEDICARE LIMITED, priority 2013, dated 2018):

Experiment: Handling and storage stability of crystalline Form-SP9
Assay type: physicochemical
Conditions: handling and storage for longer time; solid state
Excerpt: Crystalline Form-SP9 retains its stoichiometry even on exposure to uncontrolled environmental conditions. This stable form thus, offers various advantages in terms of storage, shelf life and favorable impurity profile.

With `Nc1nc2[nH]cc(CCc3ccc(C(=O)N[C@@H](CCC(=O)[O-])C(=O)[O-])cc3)c2c(=O)[nH]1.[K+].[K+]` [Form-SP9, Pemetrexed dipotassium] the “stability of the crystal form (morphology and physicochemical characteristics)” value was “very stable crystal lattice”.
